From ChEMBL document CHEMBL3627717, “Multivalent LKγ-PNA oligomers bind to a human telomere DNA G-rich sequence to form quadruplexes” (Bioorg Med Chem Lett, 2015) come the findings set out here.

The experiment has as its system DNA. The experiment can be described thus: Binding affinity to human truncated telomeric DNA1 assessed as melting temperature at 20 uM by UV melting curve analysis (reference value: 58.9 +/- 0.3 degC). The format is nucleic-acid assay.

Consider `CC(=O)NCCN(CC(=O)NCCN(CC(=O)NCCN(CC(=O)NCCN(CC(=O)NCCN(CC(=O)NC(CCCCN(C)C)C(N)=O)C(=O)Cn1cc(C)c(=O)[nH]c1=O)C(=O)Cn1cnc2c(=O)[nH]c(N)nc21)C(=O)Cn1cnc2c(=O)[nH]c(N)nc21)C(=O)Cn1cnc2c(=O)[nH]c(N)nc21)C(=O)Cn1cc(C)c(=O)[nH]c1=O` (centres undefined), for which the Tm was found to be 57.3 °C. The result for `CC(=O)NCCN(CC(=O)NC(CCCCN)CN(CC(=O)NCCN(CC(=O)NC(CCCCN)CN(CC(=O)NCCN(CC(=O)NC(CCCCN(C)C)C(N)=O)C(=O)Cn1cc(C)c(=O)[nH]c1=O)C(=O)Cn1cnc2c(=O)[nH]c(N)nc21)C(=O)Cn1cnc2c(=O)[nH]c(N)nc21)C(=O)Cn1cnc2c(=O)[nH]c(N)nc21)C(=O)Cn1cc(C)c(=O)[nH]c1=O` (centres undefined) reads 58.4 °C; that for `CC(=O)NCCN(CC(=O)NC(CCCCN)CN(CC(=O)NC(CCCCN)CN(CC(=O)NC(CCCCN)CN(CC(=O)NCCN(CC(=O)NC(CCCCN(C)C)C(N)=O)C(=O)Cn1cc(C)c(=O)[nH]c1=O)C(=O)Cn1cnc2c(=O)[nH]c(N)nc21)C(=O)Cn1cnc2c(=O)[nH]c(N)nc21)C(=O)Cn1cnc2c(=O)[nH]c(N)nc21)C(=O)Cn1cc(C)c(=O)[nH]c1=O` (centres undefined), 59.1 °C.

Consider `CC(=O)NCCN(CC(=O)NCCN(CC(=O)NC(CCCCN)CN(CC(=O)NCCN(CC(=O)NCCN(CC(=O)NC(CCCCN(C)C)C(N)=O)C(=O)Cn1cc(C)c(=O)[nH]c1=O)C(=O)Cn1cnc2c(=O)[nH]c(N)nc21)C(=O)Cn1cnc2c(=O)[nH]c(N)nc21)C(=O)Cn1cnc2c(=O)[nH]c(N)nc21)C(=O)Cn1cc(C)c(=O)[nH]c1=O` (centres undefined), for which the Tm was 60.2 °C.
